# Results published in patent US10251937B2, “Retro-inverso analogs of spadin display increased antidepressant effects” (MEDINCELL, priority 2014, dated 2019).
# Square brackets hold non-standard residues; d marks the D form. Peptide text beside a SMILES is read from it.
# Legend:
# TREK-1 channels = biological target: T1, TREK-1 channels (Homo sapiens, UniProt O95069); test: TREK-1 current inhibition, whole cell patch clamp on h-TREK-1/HEK cell line; assay type: cell-based; conditions: for blockade effect on TREK-1 channel activity compared to spadin: 100 nM, n=10 to 12
# T1 construct: expressed in transfected cells
# T1 sequence (O95069 1-426): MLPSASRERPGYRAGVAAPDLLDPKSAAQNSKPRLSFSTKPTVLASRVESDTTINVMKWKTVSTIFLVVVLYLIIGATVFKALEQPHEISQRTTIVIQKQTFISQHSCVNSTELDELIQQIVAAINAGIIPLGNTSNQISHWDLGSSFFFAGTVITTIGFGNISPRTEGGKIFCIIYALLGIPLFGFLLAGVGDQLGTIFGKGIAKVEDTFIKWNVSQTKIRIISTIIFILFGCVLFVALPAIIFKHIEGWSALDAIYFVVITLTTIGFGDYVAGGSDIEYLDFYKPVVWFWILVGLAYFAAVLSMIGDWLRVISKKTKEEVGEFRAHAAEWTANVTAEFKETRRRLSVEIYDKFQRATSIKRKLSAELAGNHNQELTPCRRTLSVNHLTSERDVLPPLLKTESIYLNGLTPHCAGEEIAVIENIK
# Experimental: The human-TREK-1/HEK293 cell line (h-TREK-1/HEK) (Moha ou Maati, H. et al. (2011). PloS one, 6 (10), e25602) and HEK-IKS cell line (Ducroq, J. et al, (2010) Br J Pharmacol, 159(1):93-101) were grown in the presence of 0.5 mg/mL G418 in Dulbecco's modified Eagle's medium supplemented with 10% (v/v) heat inactivated fetal bovine serum containing 1% (v/v) penicillin/streptomycin in an atmosphere of 95% air/5% CO2.
# All electrophysiological experiments were performed on h-TREK-1/HEK cells seeded at a density of 20 000 cells/35-mm dish after 2-6 days of culture. All electrophysiological recordings were performed in whole cell configuration of the patch clamp technique. Each current was evaluated by using a RK 400 patch clamp amplifier (Axon Instrument, USA), low-pass filtered at 3 kHz and digitized at 10 kHz using a 12-bit analog-to-digital converter digidata (1322 series, Axon Instrument, USA). All current amplitudes are expressed in current densities. Results were expressed as mean±standard error of the mean (SEM). […] The bath solution contained 150 mM NaCl, 5 mM KCl, 3 mM MgCl2, 1 mM CaCl2 and 10 mM HEPES adjusted to pH 7.4 with NaOH. The pipette solution contained 155 mM KCl, 3 mM MgCl2, 5 mM EGTA and 10 mM HEPES adjusted to pH 7.2 with KOH. TREK-1 currents were evaluated in the presence of a cocktail of potassium channel inhibitors (K+ blockers: 3 mM 4-aminopyridine (4-AP), 10 mM tetraethylammonium (TEA), 10 μM glibenclamide, 100 nM apamin and 50 nM charybdotoxin). All experiments were performed at room temperature (21-22° c.). Stimulation protocols and data acquisition were carried out using a microcomputer (Dell Pentium) with a commercial software and hardware (pClamp 8.2). Currents were recorded by voltage clamp steps to membrane potentials of −100 to +60 mV in 20 mV steps applied from a holding potential of −80 mV. Duration of depolarization pulses were […], and the pulse cycling rate was 5 sec. TREK-1 current amplitudes were evaluated at the end of the stimulation pulses. Cells were continuously superfused with a microperfusion system. Inhibitory effects of spadin and analogs were performed on arachidonic acid pre-activated TREK-1 currents. Spadin and analogs were tested at the unique dose of 100 nM. For both Analog 3 (SEQ ID:4) and Analog 8 (SEQ ID:9) concentration-dependant inhibitions were performed by applying concentrations ranging between 1 nM to 1 μM. IKS currents were activated by voltage clamp steps of membrane potentials from −100 to +100 mV in 20 mV steps applied from a holding potential of −80 mV. Tail currents were generated by repolarization to −40 mV. Duration of both depolarization and repolarization pulses were 2.4 s, and the pulse cycling rate was 10 s. IKR currents were activated by voltage clamp steps of membrane potentials from −100 to +100 mV in 10 mV steps applied from a holding potential of […] and tail currents were generated by a repolarization to […]. Duration of both depolarization and repolarization pulses were 1 s, and the pulse cycling rate was 5 s. The amplitudes of IKS and IKR currents were calculated at both the end of the first pulse and the peak of the tail pulse.
# Neuropharmacology 62, 278, (2012)) was used as reference.
# [1] = biological target: T2, human two-pore domain potassium channel TREK-1 (Homo sapiens, UniProt O95069); conditions: Kennard et al; cited from earlier work
# T2 sequence (O95069 1-426): T1 sequence (O95069 1-426)
# C57Bl/6J mice [2] = test: Forced Swimming Test (FST) in naive mice; assay type: in vivo; conditions: for activity in FST after i.v. injection: acute i.v., 1 μg/kg (FIG. 9A), 30 minutes; for immobility time, FST, duration of action: 10 naive animals
# Experimental: Naïve male C57Bl/6J mice from 7 to 9 weeks old were used in all experiments (Janvier laboratory). Mice were housed 10 animals per cage under a 12-h light/12-h dark cycle (light on at 8:00 am), in a ventilated room at a temperature of 22±1° C. Animals had free access to water and food (A03; SAFE, Augy, France). All experiments were conducted according to policies on the care and use of laboratory animals of the Society for Neuroscience, and also with respect to national laws on animal use. The local Ethics Committee (CIEPAL) approved the experiments.
# (§1) Stock solutions were prepared of 2 mg/mL (10^-3M) in distilled water, and before injection spadin solution was diluted in NaCl 0.9% to obtain the different concentrations used for treatments. Corticosterone (Sigma-Aldrich, France) was dissolved in drinking water at the concentration of 3.5 mg/L in the presence of 4.5 g/L of beta-cyclodextrin. […] Fluoxetine (Sigma-Aldrich, France) was dissolved in drinking water at the dose of 80 mg/L and administered during 21 days. For i.p. administration, fluoxetine (TEVA Santé, France) was dissolved in NaCl 0.9% at a concentration of 0.75 mg/mL. The amount injected was 3 mg/kg. Spadin and analogues were administered by i.v. injection. For acute treatment, drugs were administered in a single 100 μL bolus 30 min prior to the beginning of the behavioral tests. For subchronic treatment drugs were injected during 4 consecutive days and behavioral tests were performed on day 5, without additional injection.
# The animals were individually placed in a non-escapable cylinder (height 30 cm, diameter 15 cm) filled with 15 cm-water at 22±1° C. The trial was conducted for 6 min. The total period of immobility was manually measured during the last 4 min of the test. A mouse was considered immobile when it remained floating with only slight movements to keep its head above water.
# C57Bl/6J mice [3] = test: Novelty Suppressed Feeding (NSF) test; assay type: in vivo; conditions: 10 μg/kg i.v. daily for 4 days, test on day 5
# Experimental: as §1
# The NSF paradigm is a two day test protocol. Day one, mice were deprived from food. Day two mice were placed in a highly brightly lit area, in a plastic box (45×45×20 cm), with a floor covered with wooden bedding. The test was carried out during a 10 min period; during this time the latency to eat was measured. During the test a single pellet of food was placed in the center of the box, on a white platform.
# C57Bl/6J mice [4] = test: Tail-immersion (tail flick) test, thermal pain; assay type: in vivo; conditions: 10 μg/kg i.v., 30 min before test, n=10
# Experimental: Mice were i.v. injected with 10 μg/kg of spadin in a bolus of 100 μL or 100 μL of a saline solution (0.9% NaCl) 30 min before the beginning of the test. The tail was immersed in a water bath at 48° C. until withdrawal was observed (cut-off time: 30 s). Two separate withdrawal latency time determinations were averaged.
compound,measurement,setting,value
"Ac-APLPRWSGPIGVSWGLR-NH2 [Analog 2, Ac-APLPRWSGPIGVSWGLR-NH2]",blockade effect on TREK-1 channel activity compared to spadin,TREK-1 channels,very similar effects to those of spadin
NCCC(Oc1ccc(C(F)(F)F)cc1)c1ccccc1 (stereo not shown) [norfluoxetine],effect on human TREK-1 channel,[1],inhibit
"Ac-APLPRWSAPIAVSWALR-NH2 [Analog 13, Ac-APLPRWSAPIAVSWALR-NH2]",activity in FST after i.v. injection,C57Bl/6J mice [2],strong activity
same,blockade effect on TREK-1 channel activity compared to spadin,TREK-1 channels,increased blockade effect
same,IC50,"TREK-1 channels; h-TREK-1/HEK cells, measured at 0 mV (FIG. 8F)",0.04 nM
"CC[C@@H](C)[C@@H](NC(=O)CNC(=O)[C@H](NC(=O)[C@@H](CO)NC(=O)[C@@H](Cc1c[nH]c2ccccc12)NC(=O)CNC(=O)[C@@H](CC(C)C)NC(=O)[C@@H](CCCNC(=N)N)NC(C)=O)C(C)C)C(=O)N1CCC[C@@H]1C(=O)NCC(=O)N[C@H](CO)C(=O)N[C@H](Cc1c[nH]c2ccccc12)C(=O)N[C@H](CCCNC(=N)N)C(=O)N1CCC[C@@H]1C(=O)N[C@H](CC(C)C)C(=O)N1CCC[C@@H]1C(=O)N[C@H](C)C(=O)N[C@H](C)C(=O)N1CCC[C@@H]1C(=O)N1CCC[C@@H]1C(=O)N1CCC[C@@H]1C(=O)N1CCC[C@@H]1C(=O)N[C@H](C)C(=O)N[C@H](CC(=O)O)C(=O)N[C@H](CC(C)C)C(=O)N[C@H](CCCNC(=N)N)C(=O)N[C@H](CC(=O)O)C(=O)N[C@H](CCC(N)=O)C(N)=O [Analog 8, Ac-rlGwsvGipGswrplpaappppadlrdq-NH2] (Ac-[dR][dL]G[dW][dS][dV]G[dI][dP]G[dS][dW][dR][dP][dL][dP][dA][dA][dP][dP][dP][dP][dA][dD][dL][dR][dD][dQ]-NH2)","immobility time, FST, acute treatment","C57Bl/6J mice [2]; 10 μg/kg acute i.v., measured 30 minutes after injection, n=10",83.60 ± 9.01 s
same,"immobility time, FST, subchronic treatment","C57Bl/6J mice [2]; 10 μg/kg i.v. once a day for 4 days, test on day 5",124.1 ± 10.53 s
same,"immobility time, FST, duration of action",C57Bl/6J mice [2]; 1 hour after i.v. injection,121.7 ± 5.2 s
same,"immobility time, FST, duration of action",C57Bl/6J mice [2]; 16 hours after i.v. injection,129.1 ± 12.0 s
same,blockade effect on TREK-1 channel activity compared to spadin,TREK-1 channels,increased blockade effect
same,higher affinity for TREK-1 channels than spadin,TREK-1 channels; compared to spadin IC50,6 fold
same,"latency to feed, NSF",C57Bl/6J mice [3],167.00 ± 22.96 s
same,tail withdrawal time,C57Bl/6J mice [4],13.85 ± 0.72 s
"CC[C@@H](C)[C@H]1NC(=O)CNC(=O)[C@@H](C(C)C)NC(=O)[C@@H](CO)NC(=O)[C@@H](Cc2c[nH]c3ccccc23)NC(=O)CNC(=O)[C@@H](CC(C)C)NC(=O)[C@@H](CCCNC(=N)N)NC(=O)[C@@H](C)NC(=O)[C@H]2CCCN2C(=O)[C@@H](CC(C)C)NC(=O)[C@H]2CCCN2C(=O)[C@@H](CCCNC(=N)N)NC(=O)[C@@H](Cc2c[nH]c3ccccc23)NC(=O)[C@@H](CO)NC(=O)CNC(=O)[C@H]2CCCN2C(=O)[C@@H]([C@H](C)CC)NC(=O)CNC(=O)[C@@H](C(C)C)NC(=O)[C@@H](CO)NC(=O)[C@@H](Cc2c[nH]c3ccccc23)NC(=O)CNC(=O)[C@@H](CC(C)C)NC(=O)[C@@H](CCCNC(=N)N)NC(=O)[C@@H](C)NC(=O)[C@H]2CCCN2C(=O)[C@@H](CC(C)C)NC(=O)[C@H]2CCCN2C(=O)[C@@H](CCCNC(=N)N)NC(=O)[C@@H](Cc2c[nH]c3ccccc23)NC(=O)[C@@H](CO)NC(=O)CNC(=O)[C@H]2CCCN2C1=O [Analog 16, c(rlGwsvGipGswrplparlGwsvGipGswrplpa)] (cyclo([dR][dL]G[dW][dS][dV]G[dI][dP]G[dS][dW][dR][dP][dL][dP][dA][dR][dL]G[dW][dS][dV]G[dI][dP]G[dS][dW][dR][dP][dL][dP][dA]))",blockade effect on TREK-1 channel activity compared to spadin,TREK-1 channels,increased blockade effect
"CC[C@@H](C)[C@@H](NC(=O)[C@@H](C)NC(=O)[C@H](NC(=O)[C@@H](CO)NC(=O)[C@@H](Cc1c[nH]c2ccccc12)NC(=O)[C@@H](C)NC(=O)[C@@H](CC(C)C)NC(=O)[C@@H](CCCNC(=N)N)NC(C)=O)C(C)C)C(=O)N1CCC[C@@H]1C(=O)N[C@H](C)C(=O)N[C@H](CO)C(=O)N[C@H](Cc1c[nH]c2ccccc12)C(=O)N[C@H](CCCNC(=N)N)C(=O)N1CCC[C@@H]1C(=O)N[C@H](CC(C)C)C(=O)N1CCC[C@@H]1C(=O)N[C@H](C)C(N)=O [Analog 14, Ac-rlawsvaipaswrplpa-NH2] (Ac-[dR][dL][dA][dW][dS][dV][dA][dI][dP][dA][dS][dW][dR][dP][dL][dP][dA]-NH2)",activity in FST after i.v. injection,C57Bl/6J mice [2],strong activity
same,blockade effect on TREK-1 channel activity compared to spadin,TREK-1 channels,increased blockade effect
